Columns and labels:
[1] = test system: IL-1β production; experiment: Mouse model: LPS-induced plasma IL-1β production; assay type: in vivo, Female C57BL/6 mice; conditions: for inhibition of IL-1β production: 5 mg/kg LPS i.v. at T0, compound i.v. at 3.75 hours, plasma at T4h, compared to vehicle treated animals; for production of IL-1β (result in words): summary statement
Protocol: Female C57BL/6 mice are injected intravenously with 5 mg/kg lipopolysaccaride (LPS) (E. coli 0111:B4) at T0; this induces production of the cytokine interleukin-1β. After 3.75 hours from the administration of LPS, the mice are injected intravenously with either vehicle or a test compound. The mice are bled at T4h and plasma analyzed for IL-1β by ELISA. The vehicle is 5% DMSO/20% Trappsol/3% Dextrose/NMDG.

[2] = test system: excitotoxic brain damage; experiment: Excitotoxic brain damage in neonatal rats; assay type: in vivo, Seven-day-old rat pups; conditions: for % Loss (percent loss of hemisphere weight): 30 mg/kg intraperitoneal 0.25 hours after 15 nMoles of MDA into right caudate nucleus, five days later; for extent of exitotoxic brain damage in rat pups (result in words): summary statement
Protocol: Compound 1 and compound 2 are tested in a model of excitotoxic brain damage in neonatal rats. Seven-day-old rat pups are anesthetized with ether, placed in a head holder and injected with 15 nMoles of MDA into the right caudate nucleus. The pups are treated by intraperitoneal injection with drug (30 mg/kg) or vehicle (0.2% methocel in water) 0.25 hours later and then returned to their home cage. Five days following this excitotoxic challenge, the pups are sacrificed, their brains removed and hemispheres weighed. The loss in weight of the injected hemisphere relative to the contralateral hemisphere is an estimate of the degree of brain necrosis. […] Importantly, such protection is not seen at the same dose of compound 2.

[3] = target: T1, ICE (Homo sapiens, UniProt P29466); experiment: ICE colorimetric dose-response (IC50) assay; assay type: biochemical; conditions: about 24 nM ICE, 60 minutes preincubation, 50 µM Ac-Tyr-Val-Ala-Asp-pNA; read-out: 2. ICE IC50
T1 sequence (P29466 120-297 limits assumed): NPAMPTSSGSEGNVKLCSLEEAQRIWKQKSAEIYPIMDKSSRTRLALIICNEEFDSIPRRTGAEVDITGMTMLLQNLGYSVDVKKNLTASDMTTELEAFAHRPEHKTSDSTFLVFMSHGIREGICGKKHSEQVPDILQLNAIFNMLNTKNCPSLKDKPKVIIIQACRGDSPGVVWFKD
T1 sequence (P29466 317-404 limits assumed): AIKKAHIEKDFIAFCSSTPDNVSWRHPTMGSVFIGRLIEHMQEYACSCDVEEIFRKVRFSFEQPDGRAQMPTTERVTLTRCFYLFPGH
Protocol: Diluted inhibitor stocks are prepared by two-fold serial dilution from a primary stock whose concentration is selected (based on screening results or on prior attempts at IC50 evaluation) to achieve approximately 95% inhibition in the most concentrated well. Aliquots of each dilution are transferred to a microtitre plate in triplicate.
ICE enzyme is diluted to approximately 24 nM in HGE buffer (100 mM Hepes pH 7.5, 0.5 mM EDTA, 20% glycerol, 0.1% Bovine Serum Albumin (BSA), and activated by adding dithiothreitol (DTT) to a final concentration of 5 mM. The activated enzyme is then aliquoted into wells containing inhibitor or vehicle, and the plate is preincubated for 60 minutes at ambient temperature. Substrate (Ac-Tyr-Val-Ala-Asp-pNA) is added to each well to a final concentration of 50 µM, and plates are placed in the microtitre plate-reader thermostated to 25°°C. Beginning 5 minutes after addition of substrate, absorbance (405 nm) of wells is monitored for 1 hour, and activity is calculated as the mean rate of change in absorbance during this interval.

[4] = test system: IL-1β production in human peripheral blood mononuclear cells (PBMCs); experiment: PBMC cellular assay: LPS-stimulated IL-1β production (ELISA); assay type: cell-based; conditions: PBMCs stimulated overnight with 10 ng/mL LPS, concentration which reduces IL-1β levels by 50%, read-out: 3. PBMC IC50
Description: Further evidence that compound 1 is a potent inhibitor of ICE is provided by its ability to inhibit IL-1β production in human peripheral blood mononuclear cells (PBMCs) as described herein. PBMCs are isolated from heparinized blood by centrifugation over a ficoll cushion, then washed three times with phosphate-buffered saline. PBMCs are suspended in a medium containing RPMI 1640 with glutamine, penicillin, streptomycin, and 2% human AB serum, then plated at 10^6 cells per well in 96 well flat bottom plates. PBMCs are stimulated overnight with 10 ng/mL of lipopolysaccharide (LPS, E. Coli strain 0111:B4; Calbiochem) in the presence or absence of compound 1 or 2. Medium is harvested, and the level of mature IL-1β was determined using an ELISA kit from R & D Systems. Compound inhibition is assessed by determining the concentration of agent which reduces IL-1β levels by 50%. Cells were cultured for an additional 4 hours in the presence of 3-(4, 5-dimethylthiazol-2-yl)-2, 5-diphenyltetrazolium bromide (MTT) to determine viability. Compound toxicity can, therefore, be assessed by determining the concentration of agent which kills 50% of the cells (IC50).

[5] = target: T1, ICE; experiment: ICE inhibition studies (fluorogenic substrate Ac-Tyr-Val-Ala-Asp-AMC, Ki); assay type: biochemical
Protocol: ICE (0.24 nM final concentration) is added to 400 µL of HGDE buffer (100 mM HEPES, 20% glycerol, 5 mM DTT, 0.5 mM EDTA) containing 15 µM substrate (Ac-Tyr-Val-Ala-Asp-AMC; KM = 15 µM) plus vehicle (DMSO) or inhibitor at concentrations bracketing the Ki. Substrate hydrolysis is monitored for 300 seconds by observing the fluorescence of released AMC using excitation at 380 nm and emission at 460 nm. Mean rates of substrate hydrolysis are evaluated by linear-regression analysis of the fluorescence vs time traces. To evaluate Ki, plots of percent inhibition vs inhibitor concentration are fit by non-linear regression to a reversible, competitive model: [formula] where the competition factor (1 + [S]/KM) = 2.

[6] = test system: focal cerebral ischemia; experiment: Ischemic brain damage model: permanent (MCAOp) and transient (MCAOt) focal cerebral ischemia; assay type: in vivo, CD-1 mice
Protocol: Compound 1 is tested in both permanent (MCAOp) and transient (MCAOt) models of focal cerebral ischemia in the mouse. The middle cerebral artery is occluded by an intraluminal suture in CD-1 mice. In the transient model, the suture is withdrawn after 1 hour and in both studies, mice are sacrificed at 24 hours, and brain lesion size is determined from H and E stained sections. Drug or vehicle is administered IP at -5, 60, and 180 minutes from the time of vessel occlusion at doses of 25 and 50 mg/kg × 3 (MCAOp) or 50 mg/kg × 3 (MCAOt). In the more severe MCAOp, there is a small reduction in lesion size (13%, p <0.04, one-tailed t-test) at the high dose whereas, in the less severe MCAOt, the lesion size is 60% smaller in the drug treated mice (p <0.002).

[7] = target: T2, Ich-2 (Caspase 4) (Homo sapiens, UniProt P49662); experiment: Ich-2 colorimetric dose-response (IC50) assay; assay type: biochemical; conditions: enzyme 64 nM, 60 µM Ac-Leu-Glu-Val-Asp-pNA
T2 sequence (P49662 81-270 limits assumed): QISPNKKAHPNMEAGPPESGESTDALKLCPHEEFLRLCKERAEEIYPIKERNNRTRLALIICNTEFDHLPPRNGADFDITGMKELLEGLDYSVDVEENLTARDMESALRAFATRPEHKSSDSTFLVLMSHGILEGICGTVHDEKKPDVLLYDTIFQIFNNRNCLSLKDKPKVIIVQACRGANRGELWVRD
T2 sequence (P49662 290-377 limits assumed): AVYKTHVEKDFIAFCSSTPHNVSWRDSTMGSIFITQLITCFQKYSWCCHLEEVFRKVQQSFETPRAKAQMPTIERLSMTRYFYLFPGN
Protocol: Inhibition of Ich-2 (Caspase 4) enzyme is assayed as described above for ICE, except that enzyme is used at 64 nM, and 60 µM of the Ich-2-specific substrate Ac-Leu-Glu-Val-Asp-pNA is used instead of the ICE substrate Ac-Tyr-Val-Ala-Asp-pNA.

| Structure (SMILES) | inhibition of IL-1β production [1] | production of IL-1β (result in words) [1] | % Loss (percent loss of hemisphere weight) [2] | extent of exitotoxic brain damage in rat pups (result in words) [2] | IC50 [3] | IC50 [4] | Mode of Inhib. [5] | Ki ([5]; 0.24 nM ICE, 15 µM Ac-Tyr-Val-Ala-Asp-AMC, reversible competitive model, read-out: 1. ICE Ki) | reduction in lesion size ([6]; MCAOp (permanent), high dose 50 mg/kg × 3 IP at -5, 60, 180 minutes, 24 hours) | lesion size smaller in drug treated mice ([6]; MCAOt (transient, suture withdrawn after 1 hour), 50 mg/kg × 3 IP, 24 hours) | arterial lesion size in ischemic brain damage (result in words) ([6]; mice, middle cerebral artery occlusion after reperfusion, summary statement) | IC50 [7] |
| --- | --- | --- | --- | --- | --- | --- | --- | --- | --- | --- | --- | --- |
| O=CC(CC(=O)O)NC(=O)Cn1c(-c2ccc(F)cc2)ncc(NC(=O)OCc2ccccc2)c1=O [Compound 1, N-[2-(5-benzyloxycarbonyl-amino-6-oxo-2-(4-fluorophenyl)-1,6-dihydro-1-pyrimidinyl)acetoxyl]-L-aspartic acid aldehyde] | 48% | significantly blocks | 16.1% | significantly reduces | 0.485 µM | 1.8 µM | reversible | 0.06 µM | 13% | 60% | reduced arterial lesion size | 9.8 µM |
| O=C(O)CC(NC(=O)Cn1c(-c2ccc(F)cc2)ncc(NC(=O)OCc2ccccc2)c1=O)C(=O)COc1cc(C(F)(F)F)nn1-c1ccccc1 (centres unmarked) [Compound 2, reference compound] | 11% | inactive | 20.8% | not seen | 0.004 µM | 2.2 µM | irreversible |  |  |  |  | 0.005 µM |

Source: patent EP1049703B1, “N-[2-(5-BENZYLOXYCARBONYL-AMINO-6-OXO-2-(4-FLUOROPHENYL)-1,6-DIHYDRO-1-PYRIMIDINYL)ACETOXYL]-L-ASPARTIC ACID ALDEHYDE AS AN IN VIVO INHIBITOR OF INTERLEUKIN-1BETA CONVERTING ENZYME” (WARNER-LAMBERT COMPANY, priority 1998, dated 1999)
